Data from patent US20250136722A1, “CYTOTOXICITY TARGETING CHIMERAS” (GLAXOSMITHKLINE INTELLECTUAL PROPERTY DEVELOPMENT LIMITED, priority 2021, published 2025).

Target: T1, CHOK1 cells engineered to overexpress human CCR2 (Homo sapiens, UniProt P41597)
T1 construct: expressed in transfected cells; host or cells: CHOK1 cells
Assay: Antibody dependent cellular cytotoxicity (ADCC) reporter assay (Example 199)
Format: cell-based
Settings: with anti-cotinine antibody SEQ ID NO: 11/12; CHOK1-human CCR2 target cells, Jurkat FcγRIIIa NFAT-luciferase reporter cells; 12-18 hours; read-out: ADCC Reporter Assay pEC50 (converted)
Procedure: An antibody dependent cellular cytoxicity reporter assay was conducted using the following four assay components: (i) ARM compound of Formula (I) targeting CCR2 (concentrations ranging from 1 pM to 10 μM) (ii) anti-cotinine antibody having a heavy chain sequence of SEQ ID NO: 11 and a light chain sequence of SEQ ID NO: 12 (rabbit variable region with human IgG1 Fc domain containing a DE mutation (S239D/1332E)) (concentrations ranging from 0.01 μg/mL to 200 μg/mL); (iii) target cells: CHOK1 cells engineered to overexpress either human CCR2 (typically 1000-20,000 cells per well) and (iv) reporter cells: Jurkat cells engineered to express FcγRIIIa with the reporter gene luciferase under the control of the NFAT promoter (typically 3000-75,000 cells per well). Reagents were combined in a final volume of 20 μL in a 384-well tissue culture treated plate. All four assay components were incubated together for about 12-18 hours. Thereafter, BioGlo Detection reagent (Promega) was added to the wells to lyse the cells and provide a substrate for the luciferase reporter protein. Luminescence signal was measured on a microplate reader and signal:background was calculated by dividing the signal of a test well by the signal obtained when no heterobivalent compound of Formula (I) was added. EC50 calculations were done using Graphpad Prism Software, specifically a nonlinear regression curve fit (Y=Bottom+(Top−Bottom)/(1+10^((Log EC50−X)*HillSlope))).
ARMs compounds of Formula (I) of the invention were tested for ADCC activity in the above assay in or more experimental runs and the results are shown in Table 3 below. Potency of the compounds of Formula (I) of the invention is reported as a pEC50 value. The pEC50 value is the negative log of the EC50 value, wherein the EC50 value is the half maximal effective concentration measured in molar (M). For compounds tested in more than one experimental run, the pEC50 value is reported as an average.

Q: Which EC50 does the source give for `CC(C)N(C)[C@@H]1CC[C@H](N2CC[C@H](Nc3ncnc4ccc(C(F)(F)F)cc34)C2=O)[C@H](NC(=O)[C@H]2CC[C@H](N3CCN(C(=O)CCOCCOCCNC(=O)[C@H]4CC(=O)N(C)[C@@H]4c4cccnc4)CC3)CC2)C1` [Example 96, (2S,3S)-N-(2-(2-(3-(4-((1R,4r)-4-(((1R,2S,5R)-5-(Isopropyl(methyl)amino)-2-((S)-2-oxo-3-((6-(trifluoromethyl)quinazolin-4-yl)amino)pyrrolidin-1-yl)cyclohexyl)carbamoyl)cyclohexyl)piperazin-1-yl)-3-oxopropoxy)ethoxy)ethyl)-1-methyl-5-oxo-2-(pyridin-3-yl)pyrrolidine-3-carboxamide] here?
A: 6.31 nM

Q: How did the EC50 turn out when `CC(C)N(C)[C@@H]1CC[C@H](N2CC[C@H](Nc3ncnc4ccc(C(F)(F)F)cc34)C2=O)[C@H](NC(=O)[C@H]2CC[C@H](N3CCN(C4CC(CCNC(=O)[C@H]5CC(=O)N(C)[C@@H]5c5cccnc5)C4)CC3)CC2)C1` (stereo partly drawn) [Example 97, (2S,3S)-N-(2-(3-(4-((1R,4S)-4-(((1R,2S,5R)-5-(Isopropyl(methyl)amino)-2-((S)-2-oxo-3-((6-(trifluoromethyl)quinazolin-4-yl)amino)pyrrolidin-1-yl)cyclohexyl)carbamoyl)cyclohexyl)piperazin-1-yl)cyclobutyl)ethyl)-1-methyl-5-oxo-2-(pyridin-3-yl)pyrrolidine-3-carboxamide] was run?
A: 6.31 nM

Q: `CN1C(=O)C[C@H](C(=O)NCCOCC(=O)NCCOCC(=O)N[C@H]2CC[C@@H](C(=O)N[C@@H]3C[C@H](NC(C)(C)C)CC[C@@H]3N3CC[C@H](Nc4ncnc5ccc(C(F)(F)F)cc45)C3=O)CC2)[C@H]1c1cccnc1` [Example 100] was tested. Which EC50 did it give?
A: 1.2 nM

Q: For `CC(C)N(C)[C@@H]1CC[C@H](N2CC[C@H](Nc3ncnc4ccc(C(F)(F)F)cc34)C2=O)[C@H](NC(=O)[C@H]2CC[C@@H](NC(=O)CCOCCNC(=O)CCOCCCNC(=O)[C@H]3CC(=O)N(C)[C@@H]3c3cccnc3)CC2)C1` [Example 101], which EC50 is on record?
A: 0.278 nM

Q: With `CN1C(=O)C[C@H](C(=O)NCCOCC(=O)NCCOCCC(=O)NCCOCCC(=O)N[C@@H]2C[C@H](NC(C)(C)C)CC[C@@H]2N2CC[C@H](Nc3ncnc4ccc(C(F)(F)F)cc34)C2=O)[C@H]1c1cccnc1` [Example 106] as the compound, how does the EC50 read?
A: 0.558 nM

Q: `CC(C)N(C)[C@@H]1CC[C@H](N2CC[C@H](Nc3ncnc4ccc(C(F)(F)F)cc34)C2=O)[C@H](NC(=O)[C@H]2CC[C@H](NC(=O)CCO[C@H]3CC[C@@H](OCCNC(=O)[C@H]4CC(=O)N(C)[C@@H]4c4cccnc4)CC3)CC2)C1` [Example 114] was tested. Which EC50 did it give?
A: 5.77 nM

Q: For `CC(C)N(C)[C@@H]1CC[C@H](N2CC[C@H](Nc3ncnc4ccc(C(F)(F)F)cc34)C2=O)[C@H](NC(=O)[C@H]2C[C@H](NC(=O)CCO[C@H]3CC[C@@H](OCCNC(=O)[C@H]4CC(=O)N(C)[C@@H]4c4cccnc4)CC3)C2)C1` [Example 116], which EC50 is on record?
A: 5.01 nM

Q: `CC(C)N(C)[C@@H]1CC[C@H](N2CC[C@H](Nc3ncnc4ccc(C(F)(F)F)cc34)C2=O)[C@H](NC(=O)[C@H]2C[C@H](NC(=O)CCO[C@H]3CC[C@H](OCCNC(=O)[C@H]4CC(=O)N(C)[C@@H]4c4cccnc4)CC3)C2)C1` [Example 117] was tested. Which EC50 did it give?
A: 0.316 nM

Q: `CC(C)N(C)[C@@H]1CC[C@H](N2CC[C@H](Nc3ncnc4ccc(C(F)(F)F)cc34)C2=O)[C@H](NC(=O)CCOCCOCCNC(=O)[C@@H]2CCCN2CCOCCNC(=O)[C@H]2CC(=O)N(C)[C@@H]2c2cccnc2)C1` [Example 118, (S)-N-(2-(2-(3-(((1R,2S,5R)-5-(Isopropyl(methyl)amino)-2-((S)-2-oxo-3-((6-(trifluoromethyl)quinazolin-4-yl)amino)pyrrolidin-1-yl)cyclohexyl)amino)-3-oxopropoxy)ethoxy)ethyl)-1-(2-(2-((2S,3S)-1-methyl-5-oxo-2-(pyridin-3-yl)pyrrolidine-3-carboxamido)ethoxy)ethyl)pyrrolidine-2-carboxamide] was tested. Which EC50 did it give?
A: 3.98 nM

Q: With `CN1C(=O)C[C@H](C(=O)NCCOCCOCCC(=O)N[C@H]2CC[C@@H](C(=O)N[C@@H]3C[C@H](NC(C)(C)C)CC[C@@H]3N3CC[C@H](Nc4ncnc5ccc(C(F)(F)F)cc45)C3=O)CC2)[C@H]1c1cccnc1` [Example 120, (2S,3S)-N-(2-(2-(3-(((1S,4s)-4-(((1R,2S,5R)-5-(tert-Butylamino)-2-((S)-2-oxo-3-((6-(trifluoromethyl)quinazolin-4-yl)amino)pyrrolidin-1-yl)cyclohexyl)carbamoyl)cyclohexyl)amino)-3-oxopropoxy)ethoxy)ethyl)-1-methyl-5-oxo-2-(pyridin-3-yl)pyrrolidine-3-carboxamide] as the compound, how does the EC50 read?
A: 5.46 nM

Q: Which EC50 does the source give for `CC(C)N(C)[C@@H]1CC[C@H](N2CC[C@H](Nc3ncnc4ccc(C(F)(F)F)cc34)C2=O)[C@H](NC(=O)c2cccc(NCCOCCOCCOCCOCCNC(=O)[C@H]3CC(=O)N(C)[C@@H]3c3cccnc3)n2)C1` [Example 123, N-((1R,2S,5R)-5-(Isopropyl(methyl)amino)-2-((S)-2-oxo-3-((6-(trifluoromethyl)quinazolin-4-yl)amino)pyrrolidin-1-yl)cyclohexyl)-6-((1-((2S,3S)-1-methyl-5-oxo-2-(pyridin-3-yl)pyrrolidin-3-yl)-1-oxo-5,8,11,14-tetraoxa-2-azahexadecan-16-yl)amino)picolinamide] here?
A: 5.01 nM

Q: `CC(C)N(C)[C@@H]1CC[C@H](N2CC[C@H](Nc3ncnc4ccc(C(F)(F)F)cc34)C2=O)[C@H](NC(=O)c2cccc(NCCOCCOCCOCCOCCOCCNC(=O)[C@H]3CC(=O)N(C)[C@@H]3c3cccnc3)n2)C1` [Example 124] was tested. Which EC50 did it give?
A: 2 nM

Q: How did the EC50 turn out when `CC(C)N(C)[C@@H]1CC[C@H](N2CC[C@H](Nc3ncnc4ccc(C(F)(F)F)cc34)C2=O)[C@H](NC(=O)c2ccc(NCCOCCOCCOCCOCCNC(=O)[C@H]3CC(=O)N(C)[C@@H]3c3cccnc3)nn2)C1` [Example 125] was run?
A: 3.16 nM

Q: `CC(C)N(C)[C@@H]1CC[C@H](N2CC[C@H](Nc3ncnc4ccc(C(F)(F)F)cc34)C2=O)[C@H](NC(=O)c2ccnc(NCCOCCOCCOCCOCCNC(=O)[C@H]3CC(=O)N(C)[C@@H]3c3cccnc3)c2)C1` [Example 126] was tested. Which EC50 did it give?
A: 1.58 nM

Q: For `CC(C)N(C)[C@@H]1CC[C@H](N2CC[C@H](Nc3ncnc4ccc(C(F)(F)F)cc34)C2=O)[C@H](NC(=O)c2cc(NCCOCCOCCOCCOCCNC(=O)[C@H]3CC(=O)N(C)[C@@H]3c3cccnc3)ncn2)C1` [Example 127], which EC50 is on record?
A: 1 nM

Q: With `CC(C)N(C)[C@@H]1CC[C@H](N2CC[C@H](Nc3ncnc4ccc(C(F)(F)F)cc34)C2=O)[C@H](NC(=O)c2ccc(NCCOCCOCCOCCOCCNC(=O)[C@H]3CC(=O)N(C)[C@@H]3c3cccnc3)nc2)C1` [Example 128, N-((1R,2S,5R)-5-(Isopropyl(methyl)amino)-2-((S)-2-oxo-3-((6-(trifluoromethyl)quinazolin-4-yl)amino)pyrrolidin-1-yl)cyclohexyl)-6-((1-((2S,3S)-1-methyl-5-oxo-2-(pyridin-3-yl)pyrrolidin-3-yl)-1-oxo-5,8, 11, 14-tetraoxa-2-azahexadecan-16-yl)amino)nicotinamide] as the compound, how does the EC50 read?
A: 1 nM

Q: How did the EC50 turn out when `CC(C)N(C)[C@@H]1CC[C@H](N2CC[C@H](Nc3ncnc4ccc(C(F)(F)F)cc34)C2=O)[C@H](NC(=O)c2cnn(C3CCN(CCOCCOCCOCCNC(=O)[C@H]4CC(=O)N(C)[C@@H]4c4cccnc4)CC3)c2)C1` [Example 129, N-((1R,2S,5R)-5-(Isopropyl(methyl)amino)-2-((S)-2-oxo-3-((6-(trifluoromethyl)quinazolin-4-yl)amino)pyrrolidin-1-yl)cyclohexyl)-1-(1-(1-((2S,3S)-1-methyl-5-oxo-2-(pyridin-3-yl)pyrrolidin-3-yl)-1-oxo-5,8,11-trioxa-2-azatridecan-13-yl)piperidin-4-yl)-1H-pyrazole-4-carboxamide] was run?
A: 5.01 nM

Q: Which EC50 does the source give for `CC(C)N(C)[C@@H]1CC[C@H](N2CC[C@H](Nc3ncnc4ccc(C(F)(F)F)cc34)C2=O)[C@H](NC(=O)C2CCC(N3CC(C(=O)NCCOCCOCCNC(=O)[C@H]4CC(=O)N(C)[C@@H]4c4cccnc4)C3)CC2)C1` (stereo partly drawn) [Example 131] here?
A: 3.16 nM

Q: For `CC(C)N(C)[C@@H]1CC[C@H](N2CC[C@H](Nc3ncnc4ccc(C(F)(F)F)cc34)C2=O)[C@H](NC(=O)[C@H]2CC[C@@H](N3CCC(C(=O)NCCOCCOCCNC(=O)[C@H]4CC(=O)N(C)[C@@H]4c4cccnc4)C(F)(F)C3)CC2)C1` (stereo partly drawn) [Example 132], which EC50 is on record?
A: 3.16 nM

Q: How did the EC50 turn out when `CC(C)N(C)[C@@H]1CC[C@H](N2CC[C@H](Nc3ncnc4ccc(C(F)(F)F)cc34)C2=O)[C@H](NC(=O)c2ccc([C@H]3CC[C@@H](C(=O)NCCOCCOCCNC(=O)[C@H]4CC(=O)N(C)[C@@H]4c4cccnc4)CC3)cc2)C1` [Example 133] was run?
A: 5.01 nM

Q: With `CC(C)N(C)[C@@H]1CC[C@H](N2CC[C@H](Nc3ncnc4ccc(C(F)(F)F)cc34)C2=O)[C@H](NC(=O)[C@H]2CC[C@@H](N3CCC(C(=O)NCCOCCOCCNC(=O)[C@H]4CC(=O)N(C)[C@@H]4c4cccnc4)CC3)CC2)C1` [Example 134] as the compound, how does the EC50 read?
A: 0.0631 nM
